How the values were obtained:
[1] = target: K-Ras^G12C : hSOS1 interaction (Homo sapiens, UniProt Q07889); test: Biochemical assay 1: K-Ras^G12C interaction assay with hSOS1 (HTRF); format: binding; conditions: read-out: Assay 1 (KRAS-SOS Interaction) activity expressed as IC50
Protocol: Biochemical assay 1: K-Ras^G12C Interaction Assay with hSOS1
This assay quantifies the equilibrium interaction of human SOS1 with K-Ras^Gl2C. Detection of the interaction is achieved by measuring homogenous time-resolved fluorescence resonance energy transfer (HTRF) from antiGST-Europium (FRET donor) bound to GST-K-Ras^G12C to anti-6His-XL665 bound to His-tagged hSOS1 (FRET-acceptor).
The assay buffer contained 5 mM HEPES pH 7.4 (Applichem), 150 mM NaCl (Sigma), 10 mM EDTA (Promega), 1 mM DTT (Thermofisher), 0.05% BSA Fraction V, pH 7.0, (ICN Biomedicals), 0.0025% (v/v) Igepal (Sigma) and 100 mM KF (FLUKA).
Concentrations of protein batches used were optimized to be within the linear range of the HTRF signal. A Ras working solution was prepared in assay buffer containing typically 10 nM GST-hK-RasG12C and 2 nM antiGST-Eu(K) (Cisbio, France). A SOS working solution was prepared in assay buffer containing typically 20 nM His-hSOS1 and 10 nM anti-6His-XL665 (Cisbio, France). An inhibitor control solution was prepared in assay buffer containing 10 nM anti-6His-XL665 without hSOS1.
(§1) Fifty nl of a 100-fold concentrated solution of the test compound in DMSO were transferred into a black microtiter test plate (384 or 1536, Greiner Bio-One, Germany). For this, either a Hummingbird liquid handler (Digilab, MA, USA) or an Echo acoustic system (Labcyte, CA, USA) was used.
(§2) All steps of the assay were performed at 20° C. A volume of 2.5 μl of the Ras working solution was added to all wells of the test plate using a Multidrop dispenser (Thermo Labsystems). After 2 min preincubation, 2.5 μl of the SOS working solution were added to all wells except for those wells at the side of the test plate that were subsequently filled with 2.5 μl of the inhibitor control solution. After 60 min incubation the fluorescence was measured with a Pherastar (BMG, Germany) using the HTRF module (excitation 337 nm, emission 1: 620 nm, emission 2: 665 nm).
(§3) IC50 values were calculated by 4-Parameter fitting using a commercial software package (Genedata Screener, Switzerland).

[2] = target: human SOS1 (nucleotide exchange of K-Ras^G12C) (Homo sapiens, UniProt Q07889); test: Biochemical assay 2: K-Ras^G12C activation assay by hSOS1 at high GTP concentration (HTRF); conditions: high GTP; read-out: Assay 2 (KRAS-Activation by SOS high GTP) activity expressed as IC50
Excerpt: Biochemical Assay 2: K-Ras^G12C Activation Assay by hSOS1 at High GTP Concentration
This assay quantifies human SOS1-mediated nucleotide exchange of K-Ras^G12C preloaded with a fluorescent […] and in presence of an excess of free GTP. Loaded hK-Ras^G12C generates a high HTRF-signal by energy transfer from antiGST-Terbium (FRET donor) bound to K-Ras to the loaded fluorescent GDP analog (FRET-acceptor). SOS1 activity exchanges the fluorescent GDP for non-fluorescent GTP and therefore leads to a reduction of the HTRF signal.
The fluorescent GDP-analog EDA-GDP-Dy647P1 (2′/3′-O-(2-Aminoethyl-carbamoyl)-guanosine-5′-diphosphate labelled with Dy647P1 (Dyomics GmbH, Germany)) was synthesized by Jena Biosciences GmbH (Germany) and supplied as a 1 mM aqueous solution.
Concentrations of protein batches used were optimized to be within the linear range of the HTRF signal.
Preparation of GST-tagged hK-Ras^Gl2C loaded with fluorescent nucleotide was performed as follows: incubation of 11.5 μM hK-Ras^Gl2C with 5-fold excess GDP-Dy647 nucleotide (54 μM) in 500 μl NLS-buffer (RAS activation Kit Jena Bioscience, Kat. #PR-950) for 10 min at 37° C. Addition of 20 μl 1 M MgCl2 (Sigma) to final 40 mM and store on ice. Purification into buffer (10 mM HEPES pH 7.4 (Applichem), 150 mM NaCl (Sigma), 5 mM MgCl2 (Sigma)) by use of a PD-Minitrap desalting column (GE Healthcare). Concentration of 1 ml purified hK-Ras-GDP-Dy647 is approx. 4-5 μM.
(§4) The assay buffer contained 10 mM HEPES pH 7.4 (Applichem), 150 mM NaCl (Sigma), 5 mM MgCl2 (Sigma), 1 mM DTT (Thermofisher), 0.05% BSA Fraction V, pH 7.0, (ICN Biomedicals), 0.0025% (v/v) Igepal (Sigma).
A Ras working solution was prepared in assay buffer containing typically 80 nM loaded GST-hK-RasG12C-EDA-GDP-Dy647P1 and 2 nM antiGST-Tb (Cisbio, France). A hSOS1 working solution was prepared in assay buffer containing typically 8 nM His-hSOS1 and 100 μM GTP (Jena Bioscience, Germany). An inhibitor control solution was prepared in assay buffer containing the same concentration of […].
as §1
as §2, with “hSOS1” for “SOS”, “20” for “60”
as §3

[3] = target: human SOS1 (loading of human K-Ras^G12C-GDP with fluorescent GTP-analog) (Homo sapiens, UniProt Q07889); test: Biochemical assay 3: K-Ras^G12C activation assay by hSOS1 (HTRF); conditions: no GTP; read-out: Assay 3 (KRAS-Activation by SOS no GTP) activity expressed as IC50
Excerpt: Biochemical assay 3: K-Ras^G12C Activation Assay by hSOS1
K-Ras is a small GTPase that can bind GDP and GTP. The guanine nucleotide exchange factor SOS catalyzes the activation of K-Ras by promoting the exchange of GDP to GTP. SOS binds to K-Ras-GDP thereby opening the GDP-binding pocket to facilitate GDP release. Rebinding of excess nucleotide leads to dissociation of the K-Ras-SOS intermediate complex leaving K-Ras loaded with the nucleotide.
This assay quantifies human SOS1-mediated loading of human K-Ras^G12C-GDP with a fluorescent GTP-analog. Detection of successful loading is achieved by measuring homogenous time-resolved fluorescence resonance energy transfer (HTRF) from antiGST-Terbium (FRET donor) bound to GST-K-RasG12C to the loaded fluorescent GTP analog (FRET-acceptor).
The fluorescent GTP-analog EDA-GTP-Dy647P1 (2′/3′-O-(2-Aminoethyl-carbamoyl)-guanosine-5′-triphosphate labelled with Dy647P1 (Dyomics GmbH, Germany)) was synthesized by Jena Biosciences GmbH (Germany) and supplied as a 1 mM aqueous solution.
as §4
Concentrations of protein batches used were optimized to be within the linear range of the HTRF signal. A Ras working solution was prepared in assay buffer containing typically 100 nM GST-hK-RasG12C and 2 nM antiGST-Tb (Cisbio, France). A hSOS1 working solution was prepared in assay buffer containing typically 20 nM hSOS1 and 200 nM EDA-GTP-Dy647P1. An inhibitor control solution was prepared in assay buffer containing 200 nM EDA-GTP-Dy647P1 without hSOS1.
as §1
as §2, with “After 10” for “After 2”, “the hSOS1” for “the SOS”, “After 30” for “After 60”
as §3

| Structure (SMILES) | IC50 [1] | IC50 [2] | IC50 [3] |
| --- | --- | --- | --- |
| COc1cc2nc(C)nc(N[C@@H](C)c3ccc(-c4cncnc4)s3)c2cc1OC (racemic) [Example 42, 6,7-dimethoxy-2-methyl-N-{1-[5-(pyrimidin-5-yl)thiophen-2-yl]ethyl}quinazolin-4-amine] | 4.27 µM | 5.58 µM |  |
| COc1cc2nc(C)nc(N[C@@H](C)c3ccc(-c4cccc5cnccc45)s3)c2cc1OC (racemic) [Example 45, N-{1-[5-(isoquinolin-5-yl)thiophen-2-yl]ethyl}-6,7-dimethoxy-2-methylquinazolin-4-amine] | 1.51 µM | 2.17 µM | 1100 nM |
| COc1cc2nc(C)nc(N[C@@H](C)c3ccc(-c4cncc(C)c4)s3)c2cc1OC (racemic) [Example 46, 6,7-dimethoxy-2-methyl-N-{1-[5-(5-methylpyridin-3-yl)thiophen-2-yl]ethyl}quinazolin-4-amine] | 2.37 µM | 3.82 µM | 4100 nM |
| COCc1ccccc1-c1ccc([C@H](C)Nc2nc(C)nc3cc(OC)c(OC)cc23)s1 (racemic) [Example 50, 6,7-dimethoxy-N-[1-{5-[2-(methoxymethyl)phenyl]thiophen-2-yl}ethyl]-2-methylquinazolin-4-amine] | 9.85 µM | 20 µM |  |
| COc1cc2nc(C)nc(N[C@@H](C)c3ccc(-c4cccc(C(=O)N(C)C)c4)s3)c2cc1OC (racemic) [Example 51, 3-(5-{1-[(6,7-dimethoxy-2-methylquinazolin-4-yl)amino]ethyl}thiophen-2-yl)-N,N-dimethylbenzamide] | 5.63 µM | 5.9 µM |  |
| COc1cc2nc(C)nc(N[C@@H](C)c3ccc(-c4ccc(CO)s4)s3)c2cc1OC (racemic) [Example 52, (5′-{1-[(6,7-dimethoxy-2-methylquinazolin-4-yl)amino]ethyl}-2,2′-bithiophen-5-yl)methanol] | 4.29 µM | 5.46 µM |  |
| COc1cc2nc(C)nc(N[C@@H](C)c3ccc(-c4ccc(-c5nnc(C)o5)cc4)s3)c2cc1OC (racemic) [Example 128, 6,7-dimethoxy-2-methyl-N-[1-{5-[4-(5-methyl-1,3,4-oxadiazol-2-yl)phenyl]thiophen-2-yl}ethyl]quinazolin-4-amine] | 13.9 µM | 16.9 µM |  |
| COc1cc2nc(C)nc(N[C@@H](C)c3ccc(-c4ccc(CNC(C)=O)cc4)s3)c2cc1OC (racemic) [Example 138, N-[4-(5-{1-[(6,7-dimethoxy-2-methylquinazolin-4-yl)amino]ethyl}thiophen-2-yl)benzyl)acetamide] | 5.57 µM | 7.43 µM |  |
| COc1cc2nc(C)nc(N[C@@H](C)c3ccc(-c4cccc(CNS(C)(=O)=O)c4)s3)c2cc1OC (racemic) [Example 139, N-[3-(5-{1-[(6,7-dimethoxy-2-methylquinazolin-4-yl)amino]ethyl}thiophen-2-yl)benzyl]methanesulfonamide] | 4.7 µM | 6.13 µM |  |
| COc1cc2nc(C)nc(N[C@@H](C)c3ccc(-c4ccc(CNS(C)(=O)=O)cc4)s3)c2cc1OC (racemic) [Example 140, N-[4-(5-{1-[(6,7-dimethoxy-2-methylquinazolin-4-yl)amino]ethyl}thiophen-2-yl)benzyl]methanesulfonamide] | 5.33 µM | 5.26 µM |  |
| COc1cc2nc(C)nc(N[C@@H](C)c3ccc(-c4ccc(S(C)(=O)=O)cc4)s3)c2cc1OC (racemic) [Example 149, 6,7-dimethoxy-2-methyl-N-[1-{5-[4-(methylsulfonyl)phenyl]thiophen-2-yl}ethyl]quinazolin-4-amine] | 2.36 µM | 4.3 µM |  |
| COc1cc2nc(C)nc(N[C@@H](C)c3ccc(-c4cccc(NS(C)(=O)=O)c4)s3)c2cc1OC (racemic) [Example 165, N-[3-(5-{1-[(6,7-dimethoxy-2-methylquinazolin-4-yl)amino]ethyl}thiophen-2-yl)phenyl]methanesulfonamide] | 10.6 µM | 16.4 µM |  |
| COc1cc2nc(C)nc(N[C@@H](C)c3ccc(-c4cccc(S(C)(=O)=O)c4)s3)c2cc1OC (racemic) [Example 173, 6,7-dimethoxy-2-methyl-N-[1-{5-[3-(methylsulfonyl)phenyl]thiophen-2-yl}ethyl]quinazolin-4-amine] | 6.88 µM | 8.05 µM |  |
| COc1cc2nc(C)nc(N[C@@H](C)c3ccc(-c4ccc(C(=O)N(C)C)cc4)s3)c2cc1OC (racemic) [Example 176, 4-(5-{1-[(6,7-dimethoxy-2-methylquinazolin-4-yl)amino]ethyl}thiophen-2-yl)-N,N-dimethylbenzamide] | 3.49 µM | 5.82 µM |  |

From US20240083857A1, “2-Methyl-Quinazolines” (Bayer Pharma Aktiengesellschaft, priority 2017, published 2024)
